Assay results from ChEMBL document CHEMBL1201862, “PubChem BioAssay data set” (2004).
Each block holds one compound with its values, some of them ahead of it. The source made the active and inactive calls.

How the values were obtained:
[1] = target: Peroxisome proliferator-activated receptor gamma/Nuclear receptor coactivator 1 (Homo sapiens, UniProt P37231); experiment: (§1) TR-FRET dose response biochemical High Throughput Screening assay for agonists of the steroid receptor coactivator 1 (SRC-1) recruitment by the peroxisome proliferator-activated receptor gamma (PPAR gamma): non-selective agonists. [Related pubchem assays (depositor defined):AID1300, AID1808, AID504735, AID631]; format: protein assay
[2] = target: Peroxisome proliferator-activated receptor gamma/Nuclear receptor coactivator 3 (Homo sapiens, UniProt P37231); experiment: as §1, with “3 (SRC-3)” for “1 (SRC-1)”, “assays: 1301 (Confirmation screen.), 1048 (Primary screen.)]” for “assays (depositor defined):AID1300, AID1808, AID504735, AID631]”; format: functional
[3] = target: Peroxisome proliferator-activated receptor gamma/Nuclear receptor coactivator 2 (Homo sapiens, UniProt P37231); experiment: TR-FRET dose response biochemical High Throughput Screening assay for agonists of the steroid receptor coactivator 2 (SRC-2) recruitment by the peroxisome proliferator-activated receptor gamma (PPAR gamma): non-selective agonists. [Related pubchem assays: 1297, 1032 ]; format: functional
Chain of Peroxisome proliferator-activated receptor gamma/Nuclear receptor coactivator 2 (P37231 whole entry): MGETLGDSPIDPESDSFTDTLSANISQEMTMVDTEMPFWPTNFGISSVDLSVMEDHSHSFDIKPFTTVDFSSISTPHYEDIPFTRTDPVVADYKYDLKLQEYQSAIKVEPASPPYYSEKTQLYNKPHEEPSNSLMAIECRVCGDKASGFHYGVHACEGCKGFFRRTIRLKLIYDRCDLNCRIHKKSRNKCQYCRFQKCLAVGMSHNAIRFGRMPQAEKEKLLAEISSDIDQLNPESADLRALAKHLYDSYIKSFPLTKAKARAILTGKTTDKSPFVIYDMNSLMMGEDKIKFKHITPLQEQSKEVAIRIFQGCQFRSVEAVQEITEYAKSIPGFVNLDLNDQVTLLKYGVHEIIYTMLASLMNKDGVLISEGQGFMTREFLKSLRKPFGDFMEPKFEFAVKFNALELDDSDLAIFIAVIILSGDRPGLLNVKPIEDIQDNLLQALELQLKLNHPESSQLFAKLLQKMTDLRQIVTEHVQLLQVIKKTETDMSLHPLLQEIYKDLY
Chain of Peroxisome proliferator-activated receptor gamma/Nuclear receptor coactivator 2 (Q15596 whole entry, further chain): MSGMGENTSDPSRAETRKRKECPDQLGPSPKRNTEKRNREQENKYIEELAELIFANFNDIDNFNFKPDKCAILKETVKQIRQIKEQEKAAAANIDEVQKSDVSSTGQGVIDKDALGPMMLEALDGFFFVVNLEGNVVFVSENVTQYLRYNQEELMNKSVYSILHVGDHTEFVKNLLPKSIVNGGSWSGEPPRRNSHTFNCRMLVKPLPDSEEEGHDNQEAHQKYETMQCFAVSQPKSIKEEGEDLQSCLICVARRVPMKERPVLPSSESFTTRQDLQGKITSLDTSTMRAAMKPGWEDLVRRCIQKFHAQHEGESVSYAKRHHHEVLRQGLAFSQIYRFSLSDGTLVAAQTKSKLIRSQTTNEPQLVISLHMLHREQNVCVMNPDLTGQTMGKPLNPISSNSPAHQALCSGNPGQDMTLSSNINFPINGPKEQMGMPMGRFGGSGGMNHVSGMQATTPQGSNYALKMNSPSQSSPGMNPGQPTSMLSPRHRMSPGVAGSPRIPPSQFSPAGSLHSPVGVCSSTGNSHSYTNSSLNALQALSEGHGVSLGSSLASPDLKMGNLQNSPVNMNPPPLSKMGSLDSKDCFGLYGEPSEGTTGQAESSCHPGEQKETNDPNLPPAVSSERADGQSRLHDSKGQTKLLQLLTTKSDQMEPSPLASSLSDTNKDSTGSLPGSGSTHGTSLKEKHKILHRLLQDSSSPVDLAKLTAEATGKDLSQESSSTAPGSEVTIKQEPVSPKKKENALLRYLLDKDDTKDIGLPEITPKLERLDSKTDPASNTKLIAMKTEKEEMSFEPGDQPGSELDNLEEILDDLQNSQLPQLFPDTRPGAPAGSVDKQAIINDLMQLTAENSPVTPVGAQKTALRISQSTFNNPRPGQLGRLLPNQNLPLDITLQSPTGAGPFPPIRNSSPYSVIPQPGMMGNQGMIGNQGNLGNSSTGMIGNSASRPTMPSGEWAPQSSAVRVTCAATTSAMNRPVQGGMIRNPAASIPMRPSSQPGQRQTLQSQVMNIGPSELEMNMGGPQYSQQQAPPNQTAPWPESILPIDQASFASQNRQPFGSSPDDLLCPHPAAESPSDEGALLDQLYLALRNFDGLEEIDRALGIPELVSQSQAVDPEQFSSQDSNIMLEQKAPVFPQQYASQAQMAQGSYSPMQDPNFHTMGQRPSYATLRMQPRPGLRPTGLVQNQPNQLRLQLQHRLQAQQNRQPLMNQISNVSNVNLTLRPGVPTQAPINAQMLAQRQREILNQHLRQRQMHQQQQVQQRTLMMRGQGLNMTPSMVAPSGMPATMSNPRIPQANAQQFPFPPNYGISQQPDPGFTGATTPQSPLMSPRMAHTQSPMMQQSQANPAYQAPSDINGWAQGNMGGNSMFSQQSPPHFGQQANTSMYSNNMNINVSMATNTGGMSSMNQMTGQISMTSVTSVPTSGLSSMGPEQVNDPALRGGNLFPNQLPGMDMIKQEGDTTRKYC

[4] = target: T1, G-protein coupled receptor 35 (Homo sapiens, UniProt Q9HC97); experiment: inhibition of zaprinast-stimulated GPR35 beta-arrestin translocation – imaging, U2OS, beta-arrestin-GFP, zaprinast agonist, primary screen (AID 2058); format: functional;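 also: antagonist potency meaning inhibition of agonist-induced arrestin redistribution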
T1 sequence (Q9HC97 whole entry): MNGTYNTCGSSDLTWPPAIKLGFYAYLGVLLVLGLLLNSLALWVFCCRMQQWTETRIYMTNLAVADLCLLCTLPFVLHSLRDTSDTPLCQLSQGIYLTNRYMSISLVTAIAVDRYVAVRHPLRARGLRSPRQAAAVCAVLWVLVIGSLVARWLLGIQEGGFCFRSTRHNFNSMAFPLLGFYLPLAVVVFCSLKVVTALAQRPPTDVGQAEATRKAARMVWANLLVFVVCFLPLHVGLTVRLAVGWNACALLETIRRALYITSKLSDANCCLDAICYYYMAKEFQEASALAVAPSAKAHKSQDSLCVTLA

[5] = target: T1, G-protein coupled receptor 35; experiment: SAR Analysis for the identification of Selective Antagonists of ERK1/2 Activity in GPR35-Overexpressing U2OS Cells. [Related pubchem assays: 2079, 2058 ]; format: functional, cell-based
[6] = target: T2, G-protein coupled receptor 55 (Homo sapiens, UniProt Q9Y2T6); experiment: blockers of GPR55 signalling, imaged – imaging, image-based, counter-screen for GPR35 antagonist project, SAR follow-up (AID 2397); format: functional
T2 sequence (Q9Y2T6 whole entry): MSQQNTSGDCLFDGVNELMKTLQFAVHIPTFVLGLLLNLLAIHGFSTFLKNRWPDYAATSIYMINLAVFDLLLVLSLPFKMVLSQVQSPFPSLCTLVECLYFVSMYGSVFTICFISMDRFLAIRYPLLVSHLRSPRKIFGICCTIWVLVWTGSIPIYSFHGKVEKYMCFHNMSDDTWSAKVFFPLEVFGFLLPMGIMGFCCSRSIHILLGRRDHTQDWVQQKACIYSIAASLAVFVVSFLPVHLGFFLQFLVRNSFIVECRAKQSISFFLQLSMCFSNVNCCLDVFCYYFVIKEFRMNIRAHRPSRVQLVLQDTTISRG

[7] = target: T3, Kappa-type opioid receptor (Homo sapiens, UniProt P41145); experiment: kappa opioid receptor activation by imaging – image-based, set 3, SAR follow-up (AID 488833); format: functional
T3 sequence (P41145 whole entry): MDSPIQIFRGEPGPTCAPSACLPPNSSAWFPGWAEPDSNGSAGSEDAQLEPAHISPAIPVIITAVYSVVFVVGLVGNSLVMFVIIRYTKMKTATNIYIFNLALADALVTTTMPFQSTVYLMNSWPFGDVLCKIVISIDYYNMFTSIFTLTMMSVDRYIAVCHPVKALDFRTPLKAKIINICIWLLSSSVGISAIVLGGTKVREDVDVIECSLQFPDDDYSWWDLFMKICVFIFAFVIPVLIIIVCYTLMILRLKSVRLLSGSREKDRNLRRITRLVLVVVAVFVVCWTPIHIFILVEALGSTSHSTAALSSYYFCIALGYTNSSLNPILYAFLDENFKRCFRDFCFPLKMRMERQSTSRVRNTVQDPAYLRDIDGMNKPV

[8] = target: Mu-type opioid receptor (Homo sapiens, UniProt P35372); experiment: SAR Analysis of Agonists of the MOR Receptor using an Image-Based Assay - Set 3. [Related pubchem assays (depositor defined):AID1777, AID1785, AID1786, AID1966, AID2133, AID2136, AID2284, AID2285, AID2352]; format: functional
Chain of Mu-type opioid receptor (P35372 whole entry): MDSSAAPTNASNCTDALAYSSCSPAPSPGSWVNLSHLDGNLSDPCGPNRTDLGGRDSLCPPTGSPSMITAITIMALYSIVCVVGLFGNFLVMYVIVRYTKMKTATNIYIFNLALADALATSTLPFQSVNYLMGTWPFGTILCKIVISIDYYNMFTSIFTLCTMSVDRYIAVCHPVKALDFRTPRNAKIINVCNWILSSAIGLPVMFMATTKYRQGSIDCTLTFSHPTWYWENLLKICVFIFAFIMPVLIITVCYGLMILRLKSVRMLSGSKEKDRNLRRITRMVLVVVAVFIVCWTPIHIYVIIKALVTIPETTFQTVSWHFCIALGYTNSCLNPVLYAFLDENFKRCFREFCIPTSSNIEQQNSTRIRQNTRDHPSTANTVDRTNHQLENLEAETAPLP

[9] = target: Delta-type opioid receptor (Homo sapiens, UniProt P41143); experiment: SAR Analysis of Agonists of the DOR Receptor using an Image-Based Assay - Set 3. [Related pubchem assays (depositor defined):AID1777, AID1786]; format: functional
Chain of Delta-type opioid receptor (P41143 whole entry): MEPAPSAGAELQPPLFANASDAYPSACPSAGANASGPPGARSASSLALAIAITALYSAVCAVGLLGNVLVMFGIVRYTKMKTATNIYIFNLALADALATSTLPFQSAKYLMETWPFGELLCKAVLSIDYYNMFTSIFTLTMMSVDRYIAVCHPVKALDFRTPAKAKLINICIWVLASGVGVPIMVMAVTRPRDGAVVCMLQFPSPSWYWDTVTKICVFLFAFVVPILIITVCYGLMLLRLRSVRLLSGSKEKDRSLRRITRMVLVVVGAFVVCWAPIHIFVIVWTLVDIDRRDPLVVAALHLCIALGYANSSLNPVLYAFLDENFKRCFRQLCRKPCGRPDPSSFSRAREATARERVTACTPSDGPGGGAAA

[10] = target: T3, Kappa-type opioid receptor; experiment: SAR analysis of small molecule agonists of the kappa opioid receptor via a luminescent beta-arrestin assay - Set 3. [Related pubchem assays (depositor defined):AID1777, AID1785, AID1786, AID1966, AID2133, AID2136, AID2284, AID2500]; format: functional
[11] = target: T1, G-protein coupled receptor 35; experiment: SAR analysis of Agonists of the GPR35 Receptor using an Image-Based Assay - Set 4. [Related pubchem assays (depositor defined):AID2013, AID2026]; format: functional
[12] = target: T4, Cannabinoid receptor 1 (Homo sapiens, UniProt P21554); experiment: SAR analysis of agonists of the Cannabinoid Receptor 1 using an Image-Based Assay - Set 4. [Related pubchem assays (depositor defined):AID2013, AID2026]; format: functional
T4 sequence (P21554 whole entry): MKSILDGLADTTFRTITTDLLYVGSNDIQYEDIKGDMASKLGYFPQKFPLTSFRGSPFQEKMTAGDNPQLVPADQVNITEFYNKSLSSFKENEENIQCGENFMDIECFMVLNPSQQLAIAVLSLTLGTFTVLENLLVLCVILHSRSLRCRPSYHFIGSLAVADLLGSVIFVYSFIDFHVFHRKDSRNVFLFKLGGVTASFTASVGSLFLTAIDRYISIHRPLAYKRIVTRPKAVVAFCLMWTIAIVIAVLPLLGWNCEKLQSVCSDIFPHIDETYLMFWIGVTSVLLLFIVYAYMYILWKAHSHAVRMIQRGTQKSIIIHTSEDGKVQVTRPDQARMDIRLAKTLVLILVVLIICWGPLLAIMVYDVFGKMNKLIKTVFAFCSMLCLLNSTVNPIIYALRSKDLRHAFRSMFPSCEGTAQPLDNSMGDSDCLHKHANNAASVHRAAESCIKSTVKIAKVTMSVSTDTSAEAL

[13] = target: T1, G-protein coupled receptor 35; experiment: SAR analysis of Antagonists of the GPR35 Receptor using an Image-Based Assay - Set 6. [Related pubchem assays (depositor defined):AID2013, AID2026]; format: functional
[14] = target: T4, Cannabinoid receptor 1; experiment: SAR analysis of antagonists of the Cannabinoid Receptor 1 using an Image-Based Assay - Set 4. [Related pubchem assays (depositor defined):AID2013, AID2026]; format: functional
[15] = target: T2, G-protein coupled receptor 55; experiment: SAR Analysis of Selective Antagonists of GPR55 using an Image-Based Assay - Set 4. [Related pubchem assays (depositor defined):AID2013, AID2026]; format: functional
[16] = target: T5, Cannabinoid receptor 2 (Homo sapiens, UniProt P34972); experiment: SAR analysis of antagonists of the Cannabinoid Receptor 2 using an Image-Based Assay - Set 3. [Related pubchem assays (depositor defined):AID2013, AID2026]; format: functional
T5 sequence (P34972 whole entry): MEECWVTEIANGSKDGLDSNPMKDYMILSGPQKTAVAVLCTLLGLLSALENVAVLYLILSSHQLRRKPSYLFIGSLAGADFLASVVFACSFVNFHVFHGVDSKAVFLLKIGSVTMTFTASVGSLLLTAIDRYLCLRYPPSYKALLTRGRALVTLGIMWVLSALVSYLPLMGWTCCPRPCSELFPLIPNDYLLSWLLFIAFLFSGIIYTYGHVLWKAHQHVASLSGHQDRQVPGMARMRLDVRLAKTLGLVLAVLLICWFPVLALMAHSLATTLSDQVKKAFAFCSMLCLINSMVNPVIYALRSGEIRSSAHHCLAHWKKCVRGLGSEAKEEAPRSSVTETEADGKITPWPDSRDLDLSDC

[17] = target: T5, Cannabinoid receptor 2; experiment: SAR analysis of agonists of the Cannabinoid Receptor 2 using an Image-Based Assay - Set 3. [Related pubchem assays (depositor defined):AID2013, AID2026]; format: functional

EC50 [1]: > 79.4 µM (inactive) | EC50 [2]: > 79.4 µM (not active) | EC50 [3]: > 79.4 µM (not active)
SMILES: CC(C)C(OC(=O)c1cc2occc2n1C)C(=O)NCc1ccc2c(c1)OCO2 (configuration not stated)

IC50 [4]: 1.2 µM (active) | IC50 [5]: > 32 µM (not active) | IC50 [6]: > 32 µM (inactive)
SMILES: Cc1nc(N2CCC(C)CC2)c2c(C)c(C(=O)Nc3ccc4c(c3)OCCO4)sc2n1

EC50 [7]: 20.9 µM (inactive) | EC50 [8]: > 32 µM (inactive) | EC50 [9]: > 32 µM (inactive) | EC50 [10]: 18 µM (inactive)
SMILES: Fc1cccc(F)c1CSc1nnc(-c2ccccn2)n1Cc1cccs1

EC50 [11]: > 32 µM (inactive) | EC50 [12]: > 32 µM (inactive) | IC50 [13]: > 32 µM (inactive) | IC50 [14]: 15.9 µM (inactive) | IC50 [15]: 4.1 µM (active) | IC50 [16]: > 32 µM (inactive) | EC50 [17]: 1.31 µM (active)
SMILES: N=c1c(C(=O)NCc2ccccc2)cc2c(=O)n3ccccc3nc2n1C1CCCC1
